# Source: patent US20070037785A1, “Novel dipeptidyl peptidase IV inhibitors used for functionally influencing different cells and treating immunological, infammatory, neuronal, and other diseases” (priority 2003, published 2007)
# pIC50: −log10 of the molar value.
# Biological target: dipeptidyl peptidase IV (Homo sapiens, UniProt P27487)
# Test: biochemical
# Settings: values marked with "*" are ID50 values; read-out: IC50DPIV, values marked with "*" = ID50
# Chain of dipeptidyl peptidase IV (P27487 whole entry, species assumed): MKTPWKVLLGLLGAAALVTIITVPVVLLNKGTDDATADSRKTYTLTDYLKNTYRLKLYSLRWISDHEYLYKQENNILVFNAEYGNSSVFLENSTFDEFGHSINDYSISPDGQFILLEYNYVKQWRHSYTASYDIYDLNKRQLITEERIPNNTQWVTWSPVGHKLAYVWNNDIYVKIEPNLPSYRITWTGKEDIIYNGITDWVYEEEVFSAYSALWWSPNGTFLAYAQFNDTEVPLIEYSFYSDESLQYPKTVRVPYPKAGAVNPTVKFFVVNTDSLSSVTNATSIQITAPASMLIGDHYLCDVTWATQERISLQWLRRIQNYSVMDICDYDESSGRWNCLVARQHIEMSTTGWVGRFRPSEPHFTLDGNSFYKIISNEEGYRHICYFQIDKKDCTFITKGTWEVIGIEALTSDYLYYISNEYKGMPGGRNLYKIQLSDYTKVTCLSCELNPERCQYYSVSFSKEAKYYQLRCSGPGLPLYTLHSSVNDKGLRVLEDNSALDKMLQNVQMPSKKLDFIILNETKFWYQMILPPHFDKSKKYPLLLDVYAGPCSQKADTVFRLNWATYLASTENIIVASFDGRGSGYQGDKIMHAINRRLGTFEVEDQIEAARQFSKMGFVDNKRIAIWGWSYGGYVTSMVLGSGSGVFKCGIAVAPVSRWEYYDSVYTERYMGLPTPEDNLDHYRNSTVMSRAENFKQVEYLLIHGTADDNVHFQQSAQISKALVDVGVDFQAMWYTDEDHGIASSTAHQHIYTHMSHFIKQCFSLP
row,Compound,pIC50
1,CC1=C(C(=O)Nc2ccccc2)C(c2ccccc2Cl)c2c(sc(C(=O)c3ccc(Cl)cc3)c2N)N1 (stereo not drawn) [D3.093],3.95
2,Cc1ccc(C(=O)NC(NC(=S)Nc2sc3c(c2C(N)=O)CCCC3)C(Cl)(Cl)Cl)cc1 (stereo not drawn) [D3.099],3.77
3,Cc1ccc(-n2c(SCC(=O)c3ccccc3)nc3sc4c(c3c2=O)CC(C(C)C)OC4)cc1 (stereo not drawn) [D3.102],3.68
4,COc1ccc2nc(NC(=O)COC(=O)CN3C(=O)c4ccccc4C3=O)sc2c1 [D3.103],3.65
5,C=CCOC(=O)C1=CS(=O)(=O)c2ccccc21 [D3.105],3.60
6,CC(=O)Oc1ccc(-n2c(=O)c3ccccc3c3ccccc3c2=O)cc1 [D3.107],3.57
7,O=C(N/N=C/c1cc(Br)ccc1OC(=O)c1ccc([N+](=O)[O-])cc1)/C(=C\c1ccc2c(c1)OCO2)NC(=O)c1ccccc1 [D3.109],3.57

# Results, then the compound that gave them:
row,pIC50,Compound
1,3.57,CSc1nc2sc3c(c2c2nnc(SCc4cccc(OC(C)C)c4)n12)CC(C)(C)OC3 [D3.108]
2,3.55,Cc1ccccc1NC(=O)c1cc2c3c(c1)C1C=CCC1CN3CC1CC=CC21 (stereo not drawn) [D3.110]
3,3.55,COc1ccc(NC(=O)CSc2nnc3n2-c2sc4c(c2C(=O)C3CCc2ccccc2)CC(C)(C)OC4)cc1 (stereo not drawn) [D3.111]
4,3.50,COc1ccc(-n2c(=O)c3c4c(sc3n3c(SCc5ccc(Br)cc5)nnc23)COC(C)(C)C4)cc1 [D3.113]
5,3.48,O=C1c2sc3nnc(-c4ccccc4)c(=O)n3c2C(=O)N1c1ccccc1 [D3.114]
6,3.44,CCOC(=O)c1c(NC(=O)CSc2nc(=O)cc(N)n2-c2cccc(C)c2)sc2c1CCC2 [D3.116]
7,3.40,Nc1ccc(C(=O)NNC(=O)c2ccc(N3C(=O)c4ccc(C(=O)NNC(=O)c5ccc([N+](=O)[O-])cc5)cc4C3=O)cc2)cc1 [D3.117]
8,3.38,Nc1nc2ccc(S(=O)(=O)c3ccc4nc(N)sc4c3)cc2s1 [D3.118]
9,3.28,Cc1ccc(N2C(=O)C3CC(c4ccccc4)=C4C5C=CC(C6C(=O)N(c7ccc(C)cc7C)C(=O)C56)C4C3C2=O)c(C)c1 (stereo not drawn) [D3.119]
10,5.51,COc1ccc(N2C(=O)CSCC2=O)cc1OC [D4.004]
11,5.42,COc1cc(OC)cc(N2C(=O)CSCC2=O)c1 [D4.005]
12,5.38,CCC(=O)Oc1cccc(N2C(=O)C3C4C=CC(C3C2=O)C2C(=O)N(c3cccc(OC(=O)CC)c3)C(=O)C42)c1 (stereo not drawn) [D4.006]

# Same assay, conditions: values without "*" = IC-50; read-out: IC50DPIV
row,Compound,pIC50
1,O=C(Nc1c[nH]c(=O)[nH]c1=O)c1ccc2c(c1)C(=O)N(c1ccc(C(=O)c3ccccc3)cc1)C2=O [D3.048],4.42
2,N#Cc1c(NC(=O)C(C(F)(F)F)C(F)(F)F)sc2c1CCCC2 [D3.049],4.40
3,O=C1c2ccccc2C(=O)N1c1cccc(-c2csc(N3N=C(c4cccc([N+](=O)[O-])c4)CC3c3ccc(F)cc3)n2)c1 (stereo not drawn) [D3.050],4.40
4,O=C1C(Cc2c[nH]c3ccccc23)NC(=S)N1c1ccccc1 (stereo not drawn) [D3.051],4.40
5,COC(=O)C1=C2SCC(=O)N2C(N)=C(C#N)C1 [D3.052],4.39
6,CN1CCN(c2nc3c(c(=O)n(C)c(=O)n3C)n2Cc2cccc(F)c2)CC1 [D3.054],4.39
7,O=C(/C=C/c1ccco1)Nc1ccc2oc(-c3cccc(Cl)c3Cl)nc2c1 [D3.055],4.37
8,N#CC1=C(N)C(C#N)(C#N)C(c2ccccc2)C2CNCC=C12 (stereo not drawn) [D3.056],4.37
9,O=C1NC23NC(=O)NC2(N1)c1ccccc1-c1ccccc13 (stereo not drawn) [D3.057],4.37
10,Cn1c(=O)[nH]c(=O)c2c1nc(NCCO)n2Cc1ccccc1Cl [D3.058],4.36
11,CC(C)(C)C(=O)N1CCN(c2cc(Cl)nc(SCC(=O)N3CCN(Cc4ccc5c(c4)OCO5)CC3)n2)CC1 [D3.059],4.34
12,CCC(=O)O/N=C(/C)c1cc2ccccc2oc1=O [D3.060],4.34
13,Cc1nc2c(sc(=S)n2C)c(=O)[nH]1 [D3.061],4.34
14,CC(C)c1ccc2c(c1)[C@@H]1C=CC[C@@H]1[C@H](c1ccc(C(=O)O)cc1)N2 [D3.062],4.33
15,Cn1c(=O)n(Cc2ccccc2)c(=O)c2c1nc(N1CCNCC1)n2Cc1ccccc1 [D3.064],4.32
16,CC(C)C1Cc2c(sc3nc(SCC(=O)c4ccccc4)n(Cc4ccccc4)c(=O)c23)CO1 (stereo not drawn) [D3.067],4.28
17,CCOC(=O)c1c(N2C(=O)C3ON(c4ccccc4)C(c4ccc([N+](=O)[O-])cc4)C3C2=O)sc2c1CCCC2 (stereo not drawn) [D3.069],4.27
18,Nc1ccc2c(c1)C/C(=C\c1ccco1)C2=O [D3.070],4.56
19,COc1cc(C)ccc1N(CCCN1C(=O)c2cccc3cccc(c23)C1=O)C(=O)c1cc(C)cc(C)c1 [D3.073],4.26

row,Compound,pIC50
1,CC(C)C1=CC23CCC4C(C)(C(=O)O)CCCC4(C)C2CC1C1C(=O)N(c2cccc(O)c2)C(=O)C13 (stereo not drawn) [D3.074],4.26
2,COc1cc2c(cc1OC)CC1(CCCC1)N=C2 [D3.077],4.23
3,CC(=O)Oc1cc2oc(=O)cc(C)c2cc1OC(C)=O [D3.078],4.23
4,CC1CCc2c(sc(NC(=O)C(C(F)(F)F)C(F)(F)F)c2C#N)C1 (stereo not drawn) [D3.080],4.22
5,O=C(N/N=C/c1cc(Br)c(O)c(Br)c1O)/C(=C\c1ccc2c(c1)OCO2)NC(=O)c1ccccc1 [D3.081],4.22
6,Cn1cnnc1SCC(=O)OCN1C(=O)c2ccccc2C1=O [D3.083],4.20
7,CSc1nc2sc3c(c2c(=O)n1-c1cccc(C)c1)CC(C)(C)OC3 [D3.088],4.09
8,CNc1nc2c(c(=O)[nH]c(=O)n2C)n1Cc1ccccc1Cl [D3.091],4.56
9,CC(C)(C)C1CCc2c(sc(NC(=O)C(C(F)(F)F)C(F)(F)F)c2C#N)C1 (stereo not drawn) [D3.092],4.00
10,Cc1ccc2nc(-c3ccc(N4C(=O)CC(N5CCC(C)CC5)C4=O)cc3)sc2c1 (stereo not drawn) [D3.094],3.94
11,O=[N+]([O-])c1ccc(C2OCN3COCC23)cc1 (stereo not drawn) [D3.095],4.37
12,Cc1cc(-c2ccc(/C=C(\C#N)c3nc4ccccc4[nH]3)o2)ccc1[N+](=O)[O-] [D3.096],3.86
13,CCOc1ccc(/C=N/NC(=O)c2cc(-c3c(OC)ccc4ccccc34)n[nH]2)cc1 [D3.100],4.25
14,O=C1CCCC(=O)N1c1ccc(N2CCc3ccccc3C2)c([N+](=O)[O-])c1 [D3.104],4.54
15,O=C1c2ccc(Oc3ccc([N+](=O)[O-])cc3[N+](=O)[O-])cc2C(=O)N1c1ccccc1 [D4.028],4.69
16,COC1CC2=C(CC1OC)CC(C)(C)NC2 (stereo not drawn) [D4.039],4.54
17,CCOC(=O)c1c(C)oc2c1c1c(c3ccccc32)OCN(C2CCS(=O)(=O)C2)C1 (stereo not drawn) [D4.045],4.47
18,CC1=C(C#N)C(=O)N(CCCO)C(=O)/C1=C\c1ccc(-c2cc(C)c(C)cc2[N+](=O)[O-])o1 [D4.046],4.46
19,C=CCOC(=O)c1cc(-c2ccc(/C=C3/C(=O)N(CCCO)C(=O)C(C#N)=C3C)o2)ccc1Cl [D4.054],4.35

# Now from value to compound:
row,pIC50,Compound
1,5.16,N#CC1=C(N)C(C#N)(C#N)C(c2ccccc2)C2CNCC=C12 (stereo not drawn) [D4.007]
2,5.13,N#CC1=C(N)C(C#N)(C#N)C(c2ccccc2F)C2CNCC=C12 (stereo not drawn) [D4.009]
3,5.12,Cc1cccc(C2N(CC(C)C)CC(C(=O)c3c(C)cccc3C)N2CCCN2CCCC2=O)c1 (stereo not drawn) [D4.010]
4,5.07,O=C1CSCC(=O)N1c1cc(Cl)cc(Cl)c1 [D4.011]
5,5.00,Nc1nonc1-n1nnc(C(=O)NN=C2c3ccccc3-c3ccccc32)c1-c1ccccc1 [D4.013]
6,4.91,CCOC(=O)c1ccc(N2C(=O)CSCC2=O)cc1 [D4.015]
7,4.91,O=C1C=C(c2cccc([N+](=O)[O-])c2)C(=O)N1c1ccc(Cl)cc1 [D4.016]
8,4.87,CCOC(=O)CN(Cc1ccccc1)c1ccc(N2C(=O)CCCC2=O)cc1[N+](=O)[O-] [D4.017]
9,4.82,CCCn1c(N2CCN(CC(=O)c3c(C)n(C)c4ccccc34)CC2)nc2c1c(=O)[nH]c(=O)n2C [D4.019]
10,4.82,CCCC(=O)O/N=C1\C(=O)N(c2ccccc2)c2ccccc21 [D4.020]
11,4.81,COC(=O)C(CC(C)C)Nc1ccc(N2C(=O)CCCC2=O)cc1[N+](=O)[O-] (stereo not drawn) [D4.021]
12,4.74,CC(=O)Oc1cccc(N2C(=O)c3ccc(C(=O)NCc4ccc(C(=O)O)cc4)cc3C2=O)c1 [D4.023]
13,4.72,COc1ccc(N2CCN(c3nc4c(c(=O)[nH]c(=O)n4C)n3Cc3ccccc3)CC2)cc1 [D4.024]
14,4.70,Cc1cc(Nc2ccc(N3C(=O)CCCC3=O)cc2[N+](=O)[O-])no1 [D4.025]
15,4.68,NS(=O)(=O)c1ccc(N2C(=O)CCCC2=O)cc1 [D4.030]
16,4.63,N#C/C(=C\c1ccc(N2CCCCC2)c([N+](=O)[O-])c1)c1nn(CCO)c(N)c1C#N [D4.032]
17,4.61,COc1ccc(/C=N/n2c(N(C(C)=O)C(C)=O)nc(-c3ccccc3)c2-c2ccccc2)cc1 [D4.034]
18,4.61,O=C1CCCC(=O)N1c1ccc(N2CCN(Cc3ccccc3)CC2)c([N+](=O)[O-])c1 [D4.035]
19,4.56,O=C1c2ccc(-c3nc4ccccc4c(=O)o3)cc2C(=O)N1c1ccc(Cc2ccc(N3C(=O)c4ccc(-c5nc6ccccc6c(=O)o5)cc4C3=O)cc2)cc1 [D4.037]
20,4.51,COc1ccc(Cl)cc1N1C(=O)CSCC1=O [D4.041]
21,4.47,O=C1NCCCCC1Nc1ccc(N2C(=O)CCCC2=O)cc1[N+](=O)[O-] (stereo not drawn) [D4.044]
22,4.45,COc1cc(N2C(=O)CSCC2=O)c(Cl)cc1Cl [D4.047]
23,4.43,CCOCCCNc1ccc(N2C(=O)CCCC2=O)cc1[N+](=O)[O-] [D4.048]
24,4.43,CCOC(=O)c1c(C)nn(-c2ccc(N3C(=O)CSCC3=O)cc2)c1C [D4.049]
25,4.37,O=C1NC23NC(=O)NC2(N1)c1ccccc1-c1ccccc13 (stereo not drawn) [D4.053]
26,4.32,CC1=C(C#N)C(=O)N(CCc2ccccc2)C(=O)/C1=C/c1ccc(-c2ccc(S(N)(=O)=O)cc2)o1 [D4.057]
27,4.31,CCCCOC(=O)c1cc(-c2ccc(/C=C3/C(=O)N(CC(C)O)C(=O)C(C#N)=C3C)o2)ccc1Cl (stereo not drawn) [D4.059]
28,4.28,O=C(Oc1csc(-c2cccnc2)n1)C1CC1 [D4.061]
29,4.28,COc1ccc(CCN(C)c2ccc(N3C(=O)CCCC3=O)cc2[N+](=O)[O-])cc1OC [D4.062]
30,4.26,O=C1CCCC(=O)N1c1ccc(NCCc2ccc(O)cc2)c([N+](=O)[O-])c1 [D4.064]
